Experimental data reported in patent publication US20140106387A1, “METHOD FOR CONTROLLING NAD(P)/NAD(P)H RATIO BY OXIDOREDUCTASE” (MD BIOALPHA CO., LTD., priority 2006, published 2014).

Legend:
Format in all cases: in vivo, mouse
[1] = tested on: mRNAs in liver, adipose and muscle tissues; assay: real-time quantitative PCR / microarray of gene expression in tissues of DIO mice
Method: Animals were continuously fed high-fat diet pellets for 3 to 4 weeks, thereby establishing DIO mice. Mice were raised in a breeding room with a 12 h/12 h light/dark D) cycle. Animals were divided into three groups, i.e., a group with administration of physiological saline (n=3), a group with administration of a vehicle (n=5) and a group with administration of 50 mg/kg of a candidate compound (n=7). Samples were orally administered to animals every day. On Days 7, 28 and 56, each tissue was removed, frozen in liquid nitrogen, and stored at […] for short and long periods of time.
On Days 7, 28 and 56, liver, adipose and muscle tissues were isolated from two groups of diet-induced DIO mice and total RNAs were extracted using Trizol. cDNAs were synthesized using 1 μg of total RNAs, and polymerase used for PCR was prepared using M-MLV polymerase according to a method instructed by the manufacturer. Real-time quantitative PCR was carried out using the prepared cDNAs.
A cDNA microarray analysis was carried out using an affymetrix mouse genome 430A 2.0 array chip. Using trizol, about 13 μg of total RNA was extracted in a concentration of more than 1 μg/1 μl from liver, adipose and muscle tissues of DIO mice on Days 7, 28 and 56, followed by a microarray analysis. Functional classification was made using NetAffx which is available from the Affymetrix website.
Adipose, liver or muscle tissues were pooled from male mice treated with a vehicle or a candidate compound for 4 weeks and the pooled tissues were subjected to microarray analysis. Total RNA was prepared from the tissues homogenized with a Trizol reagent (Invitrogen, Carlsbad, Calif.). Probes for the microarray analysis were prepared from 10 μg of the total RNA, and hybridized to Mouse 430A GeneChips (Affymetrix, Santa Clara, Calif.). The hybridized array was scanned, and raw data was extracted using Microarray Analysis Suite 5.0 (Affymetrix). For PCR quantitation, 1 μg of total RNA was reversely transcribed into cDNA using Superscript II and oligo(dT) primers. The constructed cDNA was amplified with the LightCycler FastStart DNA Master SYBR Green I kit and LightCycler, according to the manufacturer's instruction (Roche Diagnostics, Indianapolis, Ind.). Expression data were normalized to β-actin expression.
In order to investigate anti-obesity effects of an NQO1 activator, the NQO1 activator was administered daily to DIO mice at a dose of 50 mg/kg via an oral route, and an attempt was made to confirm levels of mRNAs of acetyl CoA carboxylase (ACC) 1, ACC2, fatty acid synthase (FAS), lipoprotein lipase (LPL), and stearoyl-CoA desaturase 1 (SCD1), which participate in lipid metabolism in the hepatic and gonadal adipose tissues, by real-time quantitative PCR. These enzymes are very important for lipid metabolism; it is known that ACC catalyzes formation of malonyl CoA from acetyl CoA, FAS catalyzes formation of palmitate from malonyl CoA, and SCD1 catalyzes formation of monounsaturated fat, thus playing a critical role in formation of triacylglycerol, a major energy store. Therefore, these enzymes are closely correlated with obesity, diabetes, and lipid metabolism-related diseases. […] Therefore, from the results of such increased or decreased expression of genes for the above-mentioned enzymes, it can be inferred that NQO1 will be feasible as a therapeutic target for the treatment of metabolic diseases.
In order to investigate effects of βL on the expression of genes involved in glucose and fat metabolism in liver, skeletal muscle and white adipose tissue (WAT), experiments were caned out using gene expression microarray analysis and mouse A42 Affymetrix GeneChip.

[2] = liver and muscle histology (H&E, EM) in ob/ob mice; details: 56 days
Method: The removed tissues were cut into a proper size, fixed in 10% formalin, washed with water, and embedded in paraffin to prepare blocks, according to a conventional method. The thus-prepared blocks were sectioned into a 4 μm thickness and subjected to hematoxylin and eosin (H&E) staining for observation of general changes.
For observation of cellular microstructures, the removed tissues were sliced into a size of 1 mm^3, pre-fixed in 2.5% glutaraldehyde (0.1M PBS, pH 7.4, 4° C.) for 2 to 4 hours, washed, and post-fixed in a 1% osmium tetroxide solution for 2 hours. Then, according to a conventional method, the tissues were dehydrated with serial concentrations of ethanol and the solvent was replaced with propylene oxide. The tissues were embedded in an epoxy resin mixture, and the embedded tissues were subjected to thermal polymerization to prepare blocks. The thus-prepared blocks were sectioned into a thickness of 0.5 to 1 μm using a ultramicrotome and stained with toludine blue. Observation sites were selected under a light microscope and the tissues were ultrasectioned to a thickness of 60 to 70 nm. The ultrasectioned specimens were subjected to dual staining of uranyl acetate and lead citrate and were observed under a transmission electron microscope (H-600, Hitachi, Japan) at an accelerating voltage of 75 kV.
In order to examine fat accumulation in the liver tissue, animals were laparotomized 56 days after administration of pyran-1,2-naphthoquinone, and H&E staining and EM examination were performed on the liver tissue.

[3] = swimming test of physical endurance; details: C57BL/6 DIO mice, single administration, 3 hours later
Method: This Example was intended to measure a difference in physical endurance of mice through a swimming test. For this purpose, water was placed in a cylindrical trough having a diameter of 9.5 cm and a height of 25 cm, and pyrano-1,2-naphthoquinone was administered to C57BL/6 DIO mice. 3 hours later, a sample-administered group and a control group were placed simultaneously into each cylindrical trough for measurement, and physical endurance of each group was measured and compared.

[4] = DIO mice, 50 mg/kg daily oral, liver and gonadal adipose tissues
[5] = gonadal adipose tissues, Days 7, 28 and 56, 50 mg/kg daily oral

In the case of `CC1(C)CCC2=C(O1)c1ccccc1C(=O)C2=O` [βL, 2,2-Dimethyl-3,4-dihydro-2H-benzo[h]chromene-5,6-dione], the “LPL mRNA level increase compared to control” value ([1]; DIO mice, 50 mg/kg daily oral) is reported as “approximately 2 fold”, the “increase in mRNA levels of PPAR gamma” value ([1]; DIO mice, 50 mg/kg daily oral) is reported as “two-fold” and the “mRNA of PPAR alpha” value ([1]; DIO mice, 50 mg/kg daily oral) is reported as “not changed”. For the same compound, the “mRNAs of AOX, AMPK alpha 1, AMPK alpha 2 and carnitine palmitoyltransferase 1” value ([1]; DIO mice, 50 mg/kg daily oral) was “increased levels”, the “expression levels of mRNAs of ACC1 and ACC2, FAS, LPL, and SCD1” value ([1]; DIO mice, 50 mg/kg daily oral, hepatic and gonadal adipose tissues) was “remarkably decreased” and the “HK2 mRNA level” value [1, 4] was “decreased”. For the same compound, the “mRNA levels of UCP1 & 2” value [1, 4] was “significant increases”, the “mRNAs of GLUT2 and GLUT4” value [1, 4] was “significant increases” and the “mRNAs of PGC1α, NRF1, mtTFA, COX4 and COX7” value [1, 4] was “increased levels of mRNAs for all enzymes”. The “expression of LPL, ATGL, PPARα, SIRT1, Glut2 and Glut4” value ([1]; adipose tissues, vs vehicle-treated mice) was “higher”, the “transcripts of SIRT1, SIRT3 and SIRT6” value [1, 5] was “significantly increased” and the “transcripts of SIRT2, SIRT5 and SIRT7” value [1, 5] was “did not exhibit any noticeable difference”. For the same compound, the “expression of PGC-1α and NRF-1” value ([1]; liver and muscle, βL-treated vs vehicle-treated mice) was “significantly induced”, the “expression of COX4, COX7, AOX, UCP2 and UCP3” value ([1]; muscle) was “strongly upregulated” and the “expression of GLUT 2 and GLUT 4” value ([1]; muscle) was “induced”. The “expression of Sirt1 and Sirt3” value ([1]; muscle and WAT) was “induced”, the “EM examination on liver tissues” value [2] was “remarkably decreased fat vacuoles and glycogen stores” and the “EM examination on muscle tissue of animal limbs” value [2] was “recovery of normal mitochondrial morphology”. For the same compound, the “H&E staining on liver tissue” value [2] was “almost all fat vacuoles have disappeared” and the “increase of swimming duration compared to control” value [3] was “two-fold”.
